From patent publication US10004755B2 (priority 2014, dated 2018)

How the values were obtained:
[1] = mouse, in vivo
[2] = mouse, in vivo; remark: listed apart in the source

## CCCCNc1ncc2c(-c3ccc(CN4CCN(C)CC4)cc3)cn([C@H]3CC[C@H](O)CC3)c2n1 [UNC2025A]
[1]
  oral bioavailability: orally bioavailable
[2]
  MTD (predicted dose in chow): 120 mg/kg
